Results reported in ChEMBL document CHEMBL1137883, “Synthesis and vasorelaxant properties of hybrid molecules out of NO-donors and the beta-receptor blocking drug propranolol” (2004).

Assays:
Sus scrofa [1] = species: Sus scrofa; assay: Concentration required for relaxation of PGF2-alpha (3 uM)-precontracted porcine pulmonary arteries; activity expressed as pD2
Sus scrofa [2] = species: Sus scrofa; assay: Concentration required for relaxation of isolated porcine coronary arteries; activity expressed as pD2; type: functional

Row | Structure (SMILES) | pD2 (Sus scrofa [1]) | pD2 (Sus scrofa [2])
1 | CC(=O)N[C@@H](C(=O)N(CC(O)COc1cccc2ccccc12)C(C)C)C(C)(C)SN=O (some centres undefined) | 6.94 | –
2 | CC(C)N(CC(O)COc1cccc2ccccc12)C(=O)C(C)(C)CO[N+](=O)[O-] (centres undefined) | 5.4 | –
3 | CC(=O)N[C@@H](C(=O)O)C(C)(C)SN=O | – | 6.69
4 | CC(C)(CO[N+](=O)[O-])C(=O)O | 4.69 | –
